Earlier results, collected in patent US6124282A (priority 1998, dated 2000).

Legend:
[1] = oral; urine; cited from earlier work
[2] = tested on: extensive metabolisers (EMs) and poor metabolisers (PMs); details: PMs and EMs pretreated with quinidine; cited from earlier work
[3] = tested on: extensive metabolizers (EMs); details: inhibiting CYP2D6 (EMs converted into PMs); cited from earlier work

For `COc1ccc2c3c1O[C@H]1[C@@H](O)C=C[C@H]4[C@@H](C2)N(C)CC[C@@]341` [codeine], the excreted unchanged [1] is listed as “About 4%”, the codeine analgesia [2] is listed as “impaired in PMs as well as in EMs” and the codeine consumption [3] is listed as “significantly decreases codeine consumption”.
